# Experimental data taken from ChEMBL document CHEMBL1152560, “Substituted 2-arylbenzothiazoles as kinase inhibitors: hit-to-lead optimization” (Bioorg Med Chem, 2009).
# Columns and labels:
# [1] = biological target: Ephrin type-A receptor 4 (Homo sapiens) (UniProt P54764); experiment: Residual activity of EPHA4 at 10 uM by microplate scintillation counting
# [2] = biological target: T1, cGMP-dependent protein kinase 1 (Homo sapiens) (UniProt Q13976); experiment: Residual activity of PRKG1 at 1 uM by microplate scintillation counting
# T1 sequence (whole entry): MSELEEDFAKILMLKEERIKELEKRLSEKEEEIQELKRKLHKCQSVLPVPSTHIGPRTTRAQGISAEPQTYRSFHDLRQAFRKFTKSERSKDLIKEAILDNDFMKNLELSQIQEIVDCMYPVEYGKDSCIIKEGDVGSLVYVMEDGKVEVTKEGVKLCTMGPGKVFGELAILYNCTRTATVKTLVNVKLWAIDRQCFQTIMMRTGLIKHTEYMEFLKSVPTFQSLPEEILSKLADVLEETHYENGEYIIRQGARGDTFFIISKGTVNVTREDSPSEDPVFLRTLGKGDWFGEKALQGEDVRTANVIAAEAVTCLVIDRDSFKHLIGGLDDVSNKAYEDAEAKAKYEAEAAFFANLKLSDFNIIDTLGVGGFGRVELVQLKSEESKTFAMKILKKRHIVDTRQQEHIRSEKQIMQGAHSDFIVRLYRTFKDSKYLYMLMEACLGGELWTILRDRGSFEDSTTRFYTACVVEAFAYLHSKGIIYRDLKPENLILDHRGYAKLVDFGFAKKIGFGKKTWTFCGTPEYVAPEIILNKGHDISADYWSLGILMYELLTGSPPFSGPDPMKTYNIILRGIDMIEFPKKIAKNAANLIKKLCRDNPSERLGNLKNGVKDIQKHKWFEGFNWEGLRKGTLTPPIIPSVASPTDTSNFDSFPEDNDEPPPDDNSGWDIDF
# [3] = biological target: Non-receptor tyrosine-protein kinase TYK2 (Homo sapiens) (UniProt P29597); experiment: Residual activity of TYK2 at 10 uM by microplate scintillation counting
# Chain of Non-receptor tyrosine-protein kinase TYK2 (Homo sapiens) (P29597 whole entry): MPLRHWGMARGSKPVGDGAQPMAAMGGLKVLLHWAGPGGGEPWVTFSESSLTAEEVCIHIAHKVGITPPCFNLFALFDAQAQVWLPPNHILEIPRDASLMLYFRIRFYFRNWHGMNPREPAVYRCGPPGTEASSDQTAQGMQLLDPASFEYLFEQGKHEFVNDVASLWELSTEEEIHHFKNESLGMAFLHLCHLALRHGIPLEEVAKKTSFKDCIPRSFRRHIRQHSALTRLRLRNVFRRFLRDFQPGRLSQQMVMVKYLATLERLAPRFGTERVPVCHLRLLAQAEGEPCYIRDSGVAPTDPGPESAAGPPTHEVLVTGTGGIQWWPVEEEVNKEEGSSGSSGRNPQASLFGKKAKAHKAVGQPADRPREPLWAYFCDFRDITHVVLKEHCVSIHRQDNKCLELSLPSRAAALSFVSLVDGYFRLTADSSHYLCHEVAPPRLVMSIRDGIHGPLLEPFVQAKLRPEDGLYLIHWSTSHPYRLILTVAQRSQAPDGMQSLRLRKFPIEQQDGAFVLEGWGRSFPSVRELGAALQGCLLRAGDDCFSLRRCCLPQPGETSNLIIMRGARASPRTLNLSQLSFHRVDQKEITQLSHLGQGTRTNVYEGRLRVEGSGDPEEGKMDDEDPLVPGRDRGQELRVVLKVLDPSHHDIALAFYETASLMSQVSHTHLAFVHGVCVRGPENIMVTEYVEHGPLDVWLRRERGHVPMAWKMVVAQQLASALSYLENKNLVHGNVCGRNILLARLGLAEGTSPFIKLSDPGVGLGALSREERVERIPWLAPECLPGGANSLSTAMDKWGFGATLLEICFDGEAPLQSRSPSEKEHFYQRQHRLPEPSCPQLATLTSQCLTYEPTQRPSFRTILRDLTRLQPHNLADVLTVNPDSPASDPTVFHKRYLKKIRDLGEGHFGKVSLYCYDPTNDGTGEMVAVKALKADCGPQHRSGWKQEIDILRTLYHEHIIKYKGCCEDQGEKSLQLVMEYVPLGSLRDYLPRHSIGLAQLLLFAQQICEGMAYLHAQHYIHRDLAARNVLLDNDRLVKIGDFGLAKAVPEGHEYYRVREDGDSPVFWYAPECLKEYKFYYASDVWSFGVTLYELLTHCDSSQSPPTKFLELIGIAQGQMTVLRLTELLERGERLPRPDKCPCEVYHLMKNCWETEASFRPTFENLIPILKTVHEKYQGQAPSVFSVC
# [4] = biological target: T2, Serine/threonine-protein kinase BRSK1 (Homo sapiens) (UniProt Q8TDC3); experiment: Residual activity of BRSK1 at 1 uM by microplate scintillation counting
# T2 sequence (whole entry): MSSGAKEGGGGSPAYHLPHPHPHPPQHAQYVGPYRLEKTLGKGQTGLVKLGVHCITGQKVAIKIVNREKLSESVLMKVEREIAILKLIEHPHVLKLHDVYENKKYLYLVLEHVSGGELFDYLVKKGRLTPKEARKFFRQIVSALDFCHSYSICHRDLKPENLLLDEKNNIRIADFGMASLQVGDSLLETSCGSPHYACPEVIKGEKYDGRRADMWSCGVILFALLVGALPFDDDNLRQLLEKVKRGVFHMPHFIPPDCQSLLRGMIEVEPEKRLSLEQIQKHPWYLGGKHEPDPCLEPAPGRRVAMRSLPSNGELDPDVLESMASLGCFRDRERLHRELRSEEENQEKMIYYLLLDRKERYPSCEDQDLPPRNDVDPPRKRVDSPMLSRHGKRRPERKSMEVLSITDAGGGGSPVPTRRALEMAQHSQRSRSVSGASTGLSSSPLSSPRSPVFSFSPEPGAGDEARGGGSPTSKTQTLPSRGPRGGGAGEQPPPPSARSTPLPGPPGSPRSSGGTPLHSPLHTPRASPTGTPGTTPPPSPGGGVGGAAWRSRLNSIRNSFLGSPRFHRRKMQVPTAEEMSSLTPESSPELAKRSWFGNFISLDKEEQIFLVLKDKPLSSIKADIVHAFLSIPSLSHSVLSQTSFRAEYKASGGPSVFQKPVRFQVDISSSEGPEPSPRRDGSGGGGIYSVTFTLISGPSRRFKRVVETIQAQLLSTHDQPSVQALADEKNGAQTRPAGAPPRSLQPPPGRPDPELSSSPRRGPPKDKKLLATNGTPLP
# [5] = biological target: T3, Activin receptor type-1 (Homo sapiens) (UniProt Q04771); experiment: Residual activity of ACV-R1 at 10 uM by microplate scintillation counting
# T3 sequence (whole entry): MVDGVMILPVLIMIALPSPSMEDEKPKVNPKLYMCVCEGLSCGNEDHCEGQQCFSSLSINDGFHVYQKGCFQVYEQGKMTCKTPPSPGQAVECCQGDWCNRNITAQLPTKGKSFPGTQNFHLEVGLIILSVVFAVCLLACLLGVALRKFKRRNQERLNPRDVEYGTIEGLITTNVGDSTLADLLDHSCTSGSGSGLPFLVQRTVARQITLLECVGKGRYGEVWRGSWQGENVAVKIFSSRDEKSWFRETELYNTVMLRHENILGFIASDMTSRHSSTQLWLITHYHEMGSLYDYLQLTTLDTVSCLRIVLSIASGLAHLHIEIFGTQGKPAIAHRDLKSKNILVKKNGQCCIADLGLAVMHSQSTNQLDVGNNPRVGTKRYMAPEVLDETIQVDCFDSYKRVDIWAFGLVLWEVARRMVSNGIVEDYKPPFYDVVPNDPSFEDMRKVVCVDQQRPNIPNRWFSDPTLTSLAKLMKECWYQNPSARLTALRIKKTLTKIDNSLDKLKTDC
# [6] = biological target: T4, Serine/threonine-protein kinase D2 (Homo sapiens) (UniProt Q9BZL6); experiment: Residual activity of PRKD2 at 10 uM by microplate scintillation counting
# T4 sequence (whole entry): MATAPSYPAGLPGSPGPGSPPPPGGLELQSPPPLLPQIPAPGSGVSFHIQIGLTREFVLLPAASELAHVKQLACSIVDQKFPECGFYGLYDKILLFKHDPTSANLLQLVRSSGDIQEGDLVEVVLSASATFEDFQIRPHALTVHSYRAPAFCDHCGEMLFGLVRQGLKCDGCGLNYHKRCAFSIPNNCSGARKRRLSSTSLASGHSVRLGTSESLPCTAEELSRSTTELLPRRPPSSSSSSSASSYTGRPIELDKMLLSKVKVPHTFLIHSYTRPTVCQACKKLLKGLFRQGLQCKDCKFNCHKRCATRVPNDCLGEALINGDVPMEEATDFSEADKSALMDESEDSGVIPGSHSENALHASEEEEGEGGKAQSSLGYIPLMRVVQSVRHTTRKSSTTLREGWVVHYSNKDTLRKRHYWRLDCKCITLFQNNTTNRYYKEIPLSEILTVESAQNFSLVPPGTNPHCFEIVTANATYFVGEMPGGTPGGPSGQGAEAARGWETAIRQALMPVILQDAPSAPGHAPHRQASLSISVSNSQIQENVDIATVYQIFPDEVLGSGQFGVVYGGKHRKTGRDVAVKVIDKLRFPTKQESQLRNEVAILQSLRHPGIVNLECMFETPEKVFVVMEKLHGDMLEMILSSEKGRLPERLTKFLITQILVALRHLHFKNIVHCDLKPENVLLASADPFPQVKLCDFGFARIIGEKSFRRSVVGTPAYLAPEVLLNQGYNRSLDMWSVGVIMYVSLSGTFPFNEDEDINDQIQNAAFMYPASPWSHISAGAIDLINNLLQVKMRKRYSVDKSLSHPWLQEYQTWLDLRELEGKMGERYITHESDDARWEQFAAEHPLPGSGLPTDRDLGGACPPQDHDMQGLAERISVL
# Chain of Ephrin type-A receptor 4 (Homo sapiens) (P54764 whole entry): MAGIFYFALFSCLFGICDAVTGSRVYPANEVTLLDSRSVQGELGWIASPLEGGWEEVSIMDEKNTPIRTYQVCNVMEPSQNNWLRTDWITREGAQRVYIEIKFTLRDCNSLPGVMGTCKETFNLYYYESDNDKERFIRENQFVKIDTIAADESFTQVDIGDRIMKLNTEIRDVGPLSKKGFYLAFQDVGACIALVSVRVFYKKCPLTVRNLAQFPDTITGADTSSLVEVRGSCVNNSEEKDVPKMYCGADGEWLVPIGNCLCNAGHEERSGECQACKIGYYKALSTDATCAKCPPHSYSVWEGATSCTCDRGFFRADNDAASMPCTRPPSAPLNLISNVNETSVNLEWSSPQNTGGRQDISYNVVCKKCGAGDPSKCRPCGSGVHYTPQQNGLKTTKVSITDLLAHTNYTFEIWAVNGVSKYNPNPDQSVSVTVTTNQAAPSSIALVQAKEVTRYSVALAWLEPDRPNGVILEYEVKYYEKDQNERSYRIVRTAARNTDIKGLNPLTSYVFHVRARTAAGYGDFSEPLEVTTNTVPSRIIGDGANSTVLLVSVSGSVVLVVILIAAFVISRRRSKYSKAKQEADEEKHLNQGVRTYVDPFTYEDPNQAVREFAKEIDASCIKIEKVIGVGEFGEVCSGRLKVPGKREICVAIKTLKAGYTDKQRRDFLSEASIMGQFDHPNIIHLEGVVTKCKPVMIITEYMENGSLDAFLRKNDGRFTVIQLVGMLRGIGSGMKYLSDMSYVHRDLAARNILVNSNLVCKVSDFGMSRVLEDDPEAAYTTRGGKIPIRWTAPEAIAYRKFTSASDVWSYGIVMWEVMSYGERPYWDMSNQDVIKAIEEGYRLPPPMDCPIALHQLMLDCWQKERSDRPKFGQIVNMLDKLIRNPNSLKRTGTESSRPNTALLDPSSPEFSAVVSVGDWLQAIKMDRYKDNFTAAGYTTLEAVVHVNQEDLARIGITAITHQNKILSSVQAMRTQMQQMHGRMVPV
residual activity [1],residual activity [2],residual activity [3],residual activity [4],residual activity [5],residual activity [6],Compound
94%,101%,72%,91%,81%,136%,COc1cc2c(Oc3ccc(-c4nc5ccccc5s4)cc3)ncnc2cc1OCCCN1CCCC1
47%,97%,55%,91%,96%,128%,COc1cc2c(Oc3ccc(-c4nc5ccccc5s4)cc3F)ncnc2cc1OCCCN1CCN(C)CC1
112%,87%,72%,91%,87%,146%,COc1cc2c(Oc3ccc(-c4nc5ccccc5s4)cc3)ncnc2cc1OCCCN1CCN(C)CC1
